Five compounds from patent US20250332266A1, “COMPOUNDS FOR THE DEGRADATION OF EGFR KINASE” (BeiGene Switzerland GmbH, priority 2022, published 2025) can be followed below.

Assay [1] addresses EGFR Del19/T790M/C797S (H1975-clone #28) (Homo sapiens, UniProt P00533, T790M/C797S, form not given). Kind of assay: EGFR degradation, HTRF total-EGFR assay, H1975-clone #28 (DTC). The class given is cell-based. To be noted: H1975-clone #28 Del19/T790M/C797S, 16 h treatment. The text has this: (§1) H1975-clone #28 (Del19/T790M/C797S, or abbr: DTC), H1975-clone #23 (Del19/C797S, or abbr: DC), H1975-clone #25 (L858R/T790M/C797S, or abbr: LTC) and H1975-clone #8 (L858R/C797S, or abbr: LC). EGFR-Del19/T790M/C797S, EGFR-Del19/C797S, EGFR-L858R/T790M/C797S and EGFR-L858R/C797S were stably expressed in H1975 cell lines by lentivirus-mediated over-expression, respectively. The EGFR over-expressed cells then underwent knockout, in which the EGFR targeting sgRNA was designed to only target the endogenous EGFR copies and preserve the exogenous EGFR copies. Followed by the knockout, the edited H1975 cells were seeded in 96 well plates at the concentration of 1 cell/well, cultured for about 2 weeks to allow single clones formation. The formed clones were screened by DNA sequencing and whole exon sequencing analysis for the desired edition. H1975-clone #28, H1975-clone #23, H1975-clone #25 and H1975-clone #8 were finally confirmed as homozygous Del19/T790M/C797S EGFR, Del19/C797S EGFR, L858R/T790M/C797S EGFR and L858R/C797S EGFR clones, respectively.
(§2) H1975-#25, H1975-#28, H1975-#23 and H1975-#8 cells are treated with compounds diluted in 0.2% DMSO cell culture medium on day 2, incubate for 16 h, 37° C., 5% CO2. The final concentration of compounds in all assay is start with 10 μM, 5-fold dilution, total 8 doses were included.
(§3) Total-EGFR cellular kit(64NG1PEH) were used for evaluating EGFR degradation.
(§4) After 16 h treatment, add HTRF lysis buffer to each well; seal the plate and incubate 1 hour at room temperature on a plate shaker; Once the cells are lysed, 16 μL of cell lysate are transferred to a PE 384-well HTRF detection plate; 4 μL of pre-mixed HTRF antibodies are added to each well; cover the plate with a plate sealer, spin 1000 rpm for 1 min, incubate overnight at room temperature; read on BMG PheraStar with HTRF protocol (337 nm-665 nm-620 nm).
(§5) The inhibition (degradation) percentage of the compound was calculated by the following equation:
(§6) Inhibition percentage of Compound=100−100×(Signal−low control)/(High control−low control), wherein signal=each test compound group
(§7) High control=Cell group with added DMSO and without compound, indicating microplate readings without EGFR degradation.
(§8) Imax (Dmax) is the maximum percentage of inhibition (degradation).
(§9) The IC50 (DC50) value of a compound can be obtained by fitting the following equation
(§10) Wherein, X and Y are known values, and IC50, Hillslope, Top and Bottom are the parameters obtained by fitting with software. Y is the inhibition percentage (calculated from the equation), X is the concentration of the compound; IC50 is the concentration of the compound when the 50% inhibition is reached. The smaller the IC50 value is, the stronger the inhibitory ability of the compound is. Vice versa, the higher the IC50 value is, the weaker the ability the inhibitory ability of the compound is; Hillslope represents the slope of the fitted curve, generally around 1*; Bottom represents the minimum value of the curve obtained by data fitting, which is generally 0%±20%; Top represents the maximum value of the curve obtained by data fitting, which is generally 100%±20%. The experimental data were fitted by calculating and analyzing with Dotmatics data analysis software.

Assay [2] has as its target T1, EGFR L858R/T790M/C797S (H1975-clone #25) (Homo sapiens, UniProt P00533, C797S/L858R/T790M).
T1 construct: expressed in transfected cells; host or cells: H1975 (clone #25), lentiviral transduction, endogenous EGFR knocked out
Kind of assay: EGFR degradation, HTRF total-EGFR assay, H1975-clone #25 (LTC). The class given is cell-based. The conditions noted are these: H1975-clone #25 L858R/T790M/C797S, 16 h treatment.
Source text: as §1, §2, §3, §4, §5, §6, §7, §8, §9, §10
For orientation: TR-FRET usually uses a lanthanide donor and a delayed reading to cut background.

Chain of EGFR Del19/T790M/C797S (H1975-clone #28) (P00533 with tags, fused parts or gaps DEL746-750/T790M/C797S, form open): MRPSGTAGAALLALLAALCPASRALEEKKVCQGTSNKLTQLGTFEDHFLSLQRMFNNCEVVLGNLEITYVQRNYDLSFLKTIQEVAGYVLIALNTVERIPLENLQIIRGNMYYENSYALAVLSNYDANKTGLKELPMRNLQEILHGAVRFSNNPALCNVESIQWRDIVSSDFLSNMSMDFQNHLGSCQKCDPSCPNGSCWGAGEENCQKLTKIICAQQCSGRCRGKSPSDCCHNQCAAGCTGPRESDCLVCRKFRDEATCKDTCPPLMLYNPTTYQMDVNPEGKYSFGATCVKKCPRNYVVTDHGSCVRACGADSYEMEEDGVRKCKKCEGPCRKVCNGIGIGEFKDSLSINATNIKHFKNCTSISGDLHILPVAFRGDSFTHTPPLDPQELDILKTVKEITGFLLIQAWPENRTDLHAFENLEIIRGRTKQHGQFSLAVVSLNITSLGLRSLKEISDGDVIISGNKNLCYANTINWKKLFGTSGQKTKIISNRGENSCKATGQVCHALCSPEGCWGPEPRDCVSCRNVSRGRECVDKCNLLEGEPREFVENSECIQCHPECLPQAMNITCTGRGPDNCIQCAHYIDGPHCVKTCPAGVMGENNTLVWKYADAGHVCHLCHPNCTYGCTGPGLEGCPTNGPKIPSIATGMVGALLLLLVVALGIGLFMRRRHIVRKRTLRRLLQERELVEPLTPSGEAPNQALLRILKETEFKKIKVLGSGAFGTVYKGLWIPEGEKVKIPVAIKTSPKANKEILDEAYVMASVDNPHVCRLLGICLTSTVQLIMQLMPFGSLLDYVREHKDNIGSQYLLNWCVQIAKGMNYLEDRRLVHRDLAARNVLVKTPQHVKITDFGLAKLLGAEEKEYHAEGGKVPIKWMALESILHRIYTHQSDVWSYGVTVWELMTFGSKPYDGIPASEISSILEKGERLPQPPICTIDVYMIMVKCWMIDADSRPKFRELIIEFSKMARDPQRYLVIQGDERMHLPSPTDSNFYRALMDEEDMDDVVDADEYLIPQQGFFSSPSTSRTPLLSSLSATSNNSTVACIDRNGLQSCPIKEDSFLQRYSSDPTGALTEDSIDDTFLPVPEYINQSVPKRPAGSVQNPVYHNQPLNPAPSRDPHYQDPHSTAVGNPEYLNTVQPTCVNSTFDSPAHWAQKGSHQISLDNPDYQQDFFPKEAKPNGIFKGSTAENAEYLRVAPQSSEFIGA
T1 sequence (P00533 25-1210 T790M/C797S/L858R): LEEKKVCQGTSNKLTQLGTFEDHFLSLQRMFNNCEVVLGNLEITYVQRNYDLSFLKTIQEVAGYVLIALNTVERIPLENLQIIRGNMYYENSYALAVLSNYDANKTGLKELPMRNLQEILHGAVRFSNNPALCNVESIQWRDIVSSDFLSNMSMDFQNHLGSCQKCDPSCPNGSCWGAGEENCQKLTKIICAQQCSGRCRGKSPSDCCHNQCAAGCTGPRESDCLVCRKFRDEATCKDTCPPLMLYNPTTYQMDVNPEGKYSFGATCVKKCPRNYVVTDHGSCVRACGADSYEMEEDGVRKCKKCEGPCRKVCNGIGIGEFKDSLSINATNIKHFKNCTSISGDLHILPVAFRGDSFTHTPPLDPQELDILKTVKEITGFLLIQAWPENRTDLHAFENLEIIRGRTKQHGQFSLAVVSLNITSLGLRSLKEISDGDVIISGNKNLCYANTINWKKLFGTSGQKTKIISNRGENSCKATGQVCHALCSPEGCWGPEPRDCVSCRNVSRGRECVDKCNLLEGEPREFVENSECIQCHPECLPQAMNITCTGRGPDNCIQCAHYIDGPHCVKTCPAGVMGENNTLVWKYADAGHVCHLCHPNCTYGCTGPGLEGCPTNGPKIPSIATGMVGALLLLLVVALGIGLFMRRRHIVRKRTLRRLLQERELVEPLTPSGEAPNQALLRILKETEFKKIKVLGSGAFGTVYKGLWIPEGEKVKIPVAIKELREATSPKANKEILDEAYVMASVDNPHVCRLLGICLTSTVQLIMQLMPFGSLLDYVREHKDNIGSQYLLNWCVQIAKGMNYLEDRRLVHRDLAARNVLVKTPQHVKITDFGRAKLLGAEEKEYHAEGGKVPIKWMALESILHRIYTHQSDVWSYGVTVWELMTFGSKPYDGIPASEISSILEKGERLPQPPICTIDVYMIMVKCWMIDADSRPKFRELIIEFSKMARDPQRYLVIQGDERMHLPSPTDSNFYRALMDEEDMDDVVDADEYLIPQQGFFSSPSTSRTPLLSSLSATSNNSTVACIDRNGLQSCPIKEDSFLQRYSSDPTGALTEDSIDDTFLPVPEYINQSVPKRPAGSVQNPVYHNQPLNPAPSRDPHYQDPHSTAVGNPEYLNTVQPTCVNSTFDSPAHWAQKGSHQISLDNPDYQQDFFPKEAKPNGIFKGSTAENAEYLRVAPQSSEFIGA

As for `Cc1cc2cc(n1)-c1cnn(C)c1OC[C@H]1C[C@@H](CN3/C(=N/C2=O)Nc2ccc(N4CCN(C5CCN(c6ccc(C7CCC(=O)NC7=O)nc6C)CC5)C[C@@H]4C)cc23)C1` (stereo partly drawn) [Example 33, 3-(5-(4-((S)-4-((7^1s,7^3R,E)-1^1,2^6-dimethyl-3-oxo-5^2,5^3-dihydro-1^1H,5^1H-9-oxa-4-aza-5(2,1)-benzo[d]imidazola-2(2,4)-pyridina-1(4,5)-pyrazola-7(1,3)-cyclobutanacyclononaphane-5^6-yl)-3-methylpiperazin-1-yl)piperidin-1-yl)-6-methylpyridin-2-yl)piperidine-2,6-dione], the “Degradation H1975 # 28 DTC” value in assay [1] was 89.4. Also, the “Degradation H1975 # 25-LTC” value in assay [2] is 93.3.

Take `Cc1cc2cc(n1)-c1cnn(C)c1OC[C@H]1C[C@@H](CN3/C(=N/C2=O)Nc2ccc(N4CCN(C5CCN(c6ccc(C7CCC(=O)NC7=O)nc6C)CC5)CC45COC5)cc23)C1` (stereo partly shown) [Example 124, 3-(5-(4-(5-((7^1s,7^3S,E)-1^1,2^6-dimethyl-3-oxo-5^2,5^3-dihydro-1^1H,5^1H-9-oxa-4-aza-5(2,1)-benzo[d]imidazola-2(2,4)-pyridina-1(4,5)-pyrazola-7(1,3)-cyclobutanacyclononaphane-5^6-yl)-2-oxa-5,8-diazaspiro[3.5]nonan-8-yl)piperidin-1-yl)-6-methylpyridin-2-yl)piperidine-2,6-dione]: in assay [1], the “Degradation H1975 # 28 DTC” value is listed as 82.6. In addition, the “Degradation H1975 # 25-LTC” value in assay [2] came out at 87.5.

On to `Cc1cc2cc(n1)-c1cnn(C)c1OC[C@H]1C[C@@H](CN3/C(=N/C2=O)Nc2ccc(N(C)C4CC5(C4)CN(C4CCN(c6cc(F)c(C7CCC(=O)NC7=O)c(F)c6)CC4)C5)cc23)C1` (stereo partly drawn) [Example 136, (R)-3-(4-(4-(6-(((7^1s,7^3s,E)-1^1,2^6-dimethyl-3-oxo-5^2,5^3-dihydro-1^1H,5^1H-9-oxa-4-aza-5(2,1)-benzo[d]imidazola-2(2,4)-pyridina-1(4,5)-pyrazola-7(1,3)-cyclobutanacyclononaphane-5^6-yl)(methyl)amino)-2-azaspiro[3.3]heptan-2-yl)piperidin-1-yl)-2,6-difluorophenyl)piperidine-2,6-dione], for which the “Degradation H1975 # 28 DTC” value in assay [1] amounted to 85.0. Moreover, in assay [2], the “Degradation H1975 # 25-LTC” value came to 87.0.

Regarding `Cc1cc2cc(n1)-c1cnn(C)c1OC[C@H]1C[C@@H](CN3/C(=N/C2=O)Nc2ccc(N4CCN(C5CN(C6CCN(c7cc(F)c([C@H]8CCC(=O)NC8=O)c(F)c7)CC6)C5)CC4)cc23)C1` [Example 137, (R)-3-(4-(4-(3-(4-((7^1s,7^3s,E)-1^1,2^6-dimethyl-3-oxo-5^2,5^3-dihydro-1^1H,5^1H-9-oxa-4-aza-5(2,1)-benzo[d]imidazola-2(2,4)-pyridina-1(4,5)-pyrazola-7(1,3)-cyclobutanacyclononaphane-5^6-yl)piperazin-1-yl)azetidin-1-yl)piperidin-1-yl)-2,6-difluorophenyl)piperidine-2,6-dione], the “Degradation H1975 # 28 DTC” value in assay [1] is recorded as 80.2. Further, in assay [2], the “Degradation H1975 # 25-LTC” value came out at 77.3.

With `Cc1cc2cc(n1)-c1cnn(C)c1OC[C@H]1C[C@@H](CN3/C(=N/C2=O)Nc2ccc(N4C5CCC4CN(C4CCN(c6cc(F)c([C@H]7CCC(=O)NC7=O)c(F)c6)CC4)C5)cc23)C1` [Example 128, (3R)-3-(4-(4-(8-((7^1s,7^3s,E)-1^1,2^6-dimethyl-3-oxo-5^2,5^3-dihydro-1^1H,5^1H-9-oxa-4-aza-5(2,1)-benzo[d]imidazola-2(2,4)-pyridina-1(4,5)-pyrazola-7(1,3)-cyclobutanacyclononaphane-5^6-yl)-3,8-diazabicyclo[3.2.1]octan-3-yl)piperidin-1-yl)-2,6-difluorophenyl)piperidine-2,6-dione], the “Degradation H1975 # 28 DTC” value in assay [1] came out at 75.7. Moreover, the “Degradation H1975 # 25-LTC” value in assay [2] came out at 73.7.
